{"source": "patent US20040152745A1", "about": "“Dipeptidyl peptidase IV inhibitors and methods of making and using dipeptidyl peptidase IV inhibitors” (Guilford Pharmaceuticals, Inc., priority 1999, published 2004)", "test_system": "organotypic spinal motor neurons", "assay": "organotypic spinal motor neuron / THA neuroprotection assay", "format": "cell-based, Sprague-Dawley rat", "settings": "exposure of neurons with THA alone", "experimental": "Each experiment consists of two 6-well plates with 5 slices from 4 different animals per well. Media changes are performed every 3 to 4 days. Cultures are treated with THA [L(−)-threo-3-hydroxyaspartic acid; Tocris Cookson Inc., Ballwin, Mo.] at 200 μM+compound (10 μM) after one week in culture. The control is an untreated sample with 0.1% DMSO as vehicle. The THA control is a THA treated sample with 0.1% DSMO as vehicle. Two wells are used per condition. One media change with new THA and compounds is performed. The experiment is stopped 6 to 8 days following drug treatment (13-15 total days in vitro, DIV) as dictated by visual assessment of lesion, by fixation with 4% paraformaldehyde/0.1 M phosphate buffer for 30 minutes. Slices are permeabilized with 100% cold methanol for 10 minutes. Slices are transferred to staining wells. […]\nQuantification of surviving neurons is performed on a Ziess Axiovert microscope. Neuronal survival is determined by observing an intact neuronal cell body with processes located ventrally of the central canal in each hemisphere. […] Each hemisphere is counted individually. The statistics can be performed with StatView software on a minimum of three different experiments per condition and significance should be determined as compared to THA control. The percent of protection can be determined from the average number of living neurons by the following equation: […]", "data": [{"smiles": "N[C@H](C(=O)O)[C@H](O)C(=O)O", "note": "[THA, L(−)-threo-3-hydroxyaspartic acid]", "values": [{"measurement": "death of the neurons", "value": "55-60%"}]}]}
